ChEMBL document CHEMBL5360568, “Synthesis and anti-Alzheimer potential of novel α-amino phosphonate derivatives and probing their molecular interaction mechanism with acetylcholinesterase” (Eur J Med Chem, 2023)
Calls of active or inactive are those of the source. No cut-off for these calls is given here.

Assays:
Acetylcholinesterase [1] = target: T1, Acetylcholinesterase (Electrophorus electricus, UniProt O42275); test: Inhibition of electric eel AChE using acetylthiocholine iodide as substrate preincubated for 5 mins followed by substrate addition by DTNB based Ellman's method
Acetylcholinesterase [2] = target: T2, Acetylcholinesterase (Homo sapiens, UniProt P22303); test: Inhibition of human erythrocyte AChE using acetylthiocholine iodide as substrate preincubated for 5 mins followed by substrate addition by DTNB based Ellman's method
Cholinesterase = Cholinesterase (Equus caballus, UniProt P81908); test: Inhibition of equine serum BuChE using butyrylthiocholine iodide as substrate preincubated for 5 mins followed by substrate addition by DTNB based Ellman's method
[3] = Antioxidant activity assessed as ABTS radical scavenging activity incubated for 30 mins by spectrophotometric analysis; format: functional
Supercoiled DNA = test: Induction of supercoiled pBR322 plasmid DNA (unknown origin) cleavage assessed as DNA nicking at 10 uM incubated for 2 hrs by Agarose gel electrophoresis analysis; format: nucleic-acid assay
[4] = target: Amyloid-beta precursor protein (Homo sapiens) (UniProt P05067); test: Modulation of amyloid beta (1 to 42) (unknown origin) self aggregation assessed as increase in fluorescence intensity at 0.03 to 0.1 uM incubated for 24 hrs by Thioflavin T fluorescence assay; conditions: filed as modulator, dose 0.03-0.1 µM
[5] = target: Amyloid-beta precursor protein (Homo sapiens) (UniProt P05067); test: Modulation of amyloid beta (1 to 42) (unknown origin) assembly assessed as morphological changes in amyloid beta (1 to 42) aggregates at 1 mM incubated for 3 days by FE-SEM image analysis relative to control; conditions: filed as modulator, time 3.0 day
[6] = Cytotoxicity against human SK-N-SH cells assessed as cell viability at 30 to 60 uM incubated for 24 hrs by MTT assay; format: toxicity, cell-based; conditions: dose 30-60 µM, read-out: Activity
[7] = Cytotoxicity against human SK-N-SH cells assessed as cell viability at 90 uM incubated for 24 hrs by MTT assay; format: toxicity, cell-based; conditions: read-out: Activity
SK-N-SH [8] = test: Neuroprotective activity against H2O2 induced oxidative cell damage in human SK-N-SH cells assessed as increase in cell viability at 90 uM preincubated for 3 hrs followed by H2O2 stimulation for 2 hrs by MTT assay (Rvb= 40%); format: functional
SK-N-SH [9] = test: Neuroprotective activity against H2O2 induced oxidative cell damage in human SK-N-SH cells assessed as increase in cell viability at 30 to 60 uM preincubated for 3 hrs followed by H2O2 stimulation for 2 hrs by MTT assay (Rvb= 40%); format: functional, cell-based; conditions: dose 30-60 µM
Acetylcholinesterase [10] = target: T2, Acetylcholinesterase; test: Binding affinity to AChE (unknown origin) assessed as reduction in intrinsic fluorescence intensity at pH 7.2 at 0.001 to 0.009 mM incubated for 5 mins by fluorescence quenching analysis; conditions: dose 0.001-0.009 mM
Acetylcholinesterase [11] = target: T2, Acetylcholinesterase; test: Binding affinity to AChE (unknown origin) assessed as static fluorescence quenching at pH 7.2 at 0.001 to 0.009 mM incubated for 5 mins by Stern-Volmer quenching plot based fluorescence spectroscopy; conditions: dose 0.001-0.009 mM
Acetylcholinesterase [12] = target: T2, Acetylcholinesterase; test: Binding affinity to AChE (unknown origin) assessed as gibbs free energy change at temperature of 298 K at 0.001 to 0.009 mM incubated for 5 mins by fluorescence quenching analysis; conditions: dose 0.001-0.009 mM
Acetylcholinesterase [13] = target: T2, Acetylcholinesterase; test: Binding affinity to AChE (unknown origin) assessed as decrease in negative bands intensity towards the baseline at […] incubated for 5 mins by Circular dichroism analysis; conditions: dose lower 0.001 nM
[14] = Selectivity ratio, ratio of IC50 for inhibition of equine serum BuChE to IC50 for inhibition of electric eel AChE
[15] = target: Acetylcholinesterase (Electrophorus electricus) (UniProt O42275); test: Mixed type inhibition of electric eel AChE using acetylthiocholine iodide as substrate assessed as decrease in Vmax and increase in Km preincubated for 5 mins followed by substrate addition and measured after 5 mins by Ellman's method based double reciprocal Lineweaver-Burk plot analysis; conditions: time 10.0 min
Acetylcholinesterase [16] = target: T1, Acetylcholinesterase; test: Mixed type inhibition of electric eel AChE using acetylthiocholine iodide as substrate assessed as inhibition constant of second plot of slope preincubated for 5 mins followed by substrate addition and measured after 5 mins by Ellman's method based double reciprocal Lineweaver-Burk plot analysis
Acetylcholinesterase [17] = target: T1, Acetylcholinesterase; test: Mixed type inhibition of electric eel AChE using acetylthiocholine iodide as substrate assessed as inhibition constant of second plot of intercept preincubated for 5 mins followed by substrate addition and measured after 5 mins by Ellman's method based double reciprocal Lineweaver-Burk plot analysis
DNA = test: Induction of pBR322 plasmid DNA (unknown origin) damage assessed as protection against Fenton's reagent induced DNA (unknown origin) damage by observing disappearance of band at 20 to 80 uM incubated for 30 mins by Agarose gel electrophoresis analysis; format: nucleic-acid assay; conditions: dose 20-80 µM

Chain of Cholinesterase (P81908 whole entry): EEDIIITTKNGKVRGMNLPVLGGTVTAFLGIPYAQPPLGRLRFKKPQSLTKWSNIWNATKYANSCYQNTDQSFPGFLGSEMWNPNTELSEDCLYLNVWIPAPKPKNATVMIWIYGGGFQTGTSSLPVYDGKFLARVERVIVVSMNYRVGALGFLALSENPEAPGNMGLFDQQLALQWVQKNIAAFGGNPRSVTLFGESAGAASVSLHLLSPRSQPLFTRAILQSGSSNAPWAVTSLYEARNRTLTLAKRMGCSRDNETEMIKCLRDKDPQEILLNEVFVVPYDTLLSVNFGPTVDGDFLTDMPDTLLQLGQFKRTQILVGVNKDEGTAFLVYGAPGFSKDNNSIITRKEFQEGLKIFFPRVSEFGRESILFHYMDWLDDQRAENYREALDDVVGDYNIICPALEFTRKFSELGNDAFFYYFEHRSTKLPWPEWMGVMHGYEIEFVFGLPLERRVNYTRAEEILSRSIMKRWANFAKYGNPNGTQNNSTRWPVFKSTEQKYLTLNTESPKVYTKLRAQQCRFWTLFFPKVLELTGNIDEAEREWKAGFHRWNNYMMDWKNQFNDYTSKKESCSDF
Chain of Amyloid-beta precursor protein (Homo sapiens) (P05067 whole entry): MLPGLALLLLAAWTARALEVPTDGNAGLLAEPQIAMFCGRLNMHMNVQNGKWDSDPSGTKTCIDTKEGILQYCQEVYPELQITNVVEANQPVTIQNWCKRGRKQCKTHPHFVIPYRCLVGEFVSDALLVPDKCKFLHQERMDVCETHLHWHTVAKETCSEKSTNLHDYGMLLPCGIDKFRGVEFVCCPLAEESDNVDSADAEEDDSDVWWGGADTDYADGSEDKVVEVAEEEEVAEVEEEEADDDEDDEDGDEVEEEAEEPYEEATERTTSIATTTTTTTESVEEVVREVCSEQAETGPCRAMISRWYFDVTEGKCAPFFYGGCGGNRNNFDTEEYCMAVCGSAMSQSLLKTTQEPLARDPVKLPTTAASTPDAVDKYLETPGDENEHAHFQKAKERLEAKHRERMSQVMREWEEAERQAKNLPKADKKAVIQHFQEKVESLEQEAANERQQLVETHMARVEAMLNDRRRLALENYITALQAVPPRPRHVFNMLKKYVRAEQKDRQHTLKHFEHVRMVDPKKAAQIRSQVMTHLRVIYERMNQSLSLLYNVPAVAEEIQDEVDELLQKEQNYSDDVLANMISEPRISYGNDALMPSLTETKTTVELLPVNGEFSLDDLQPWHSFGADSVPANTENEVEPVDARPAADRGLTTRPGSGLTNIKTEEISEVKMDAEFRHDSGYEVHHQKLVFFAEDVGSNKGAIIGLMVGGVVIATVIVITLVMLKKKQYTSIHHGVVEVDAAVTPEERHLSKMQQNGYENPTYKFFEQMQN
T1 sequence (O42275 whole entry): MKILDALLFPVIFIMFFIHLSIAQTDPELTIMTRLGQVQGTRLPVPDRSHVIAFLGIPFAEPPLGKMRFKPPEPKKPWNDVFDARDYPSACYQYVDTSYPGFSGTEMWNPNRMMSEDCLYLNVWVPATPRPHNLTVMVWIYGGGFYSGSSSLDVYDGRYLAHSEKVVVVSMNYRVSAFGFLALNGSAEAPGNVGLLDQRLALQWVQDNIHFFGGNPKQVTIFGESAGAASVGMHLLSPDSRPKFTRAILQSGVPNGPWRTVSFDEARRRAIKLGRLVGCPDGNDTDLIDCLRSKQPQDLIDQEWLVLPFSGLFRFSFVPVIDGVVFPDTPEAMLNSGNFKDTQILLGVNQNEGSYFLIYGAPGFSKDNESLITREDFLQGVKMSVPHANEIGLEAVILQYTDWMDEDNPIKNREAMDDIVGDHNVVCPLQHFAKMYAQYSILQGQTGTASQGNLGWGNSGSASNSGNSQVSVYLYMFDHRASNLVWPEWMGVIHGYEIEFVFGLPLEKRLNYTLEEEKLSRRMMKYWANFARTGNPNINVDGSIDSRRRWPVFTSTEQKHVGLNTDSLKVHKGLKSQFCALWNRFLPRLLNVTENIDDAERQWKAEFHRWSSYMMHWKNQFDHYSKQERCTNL
T2 sequence (P22303 whole entry): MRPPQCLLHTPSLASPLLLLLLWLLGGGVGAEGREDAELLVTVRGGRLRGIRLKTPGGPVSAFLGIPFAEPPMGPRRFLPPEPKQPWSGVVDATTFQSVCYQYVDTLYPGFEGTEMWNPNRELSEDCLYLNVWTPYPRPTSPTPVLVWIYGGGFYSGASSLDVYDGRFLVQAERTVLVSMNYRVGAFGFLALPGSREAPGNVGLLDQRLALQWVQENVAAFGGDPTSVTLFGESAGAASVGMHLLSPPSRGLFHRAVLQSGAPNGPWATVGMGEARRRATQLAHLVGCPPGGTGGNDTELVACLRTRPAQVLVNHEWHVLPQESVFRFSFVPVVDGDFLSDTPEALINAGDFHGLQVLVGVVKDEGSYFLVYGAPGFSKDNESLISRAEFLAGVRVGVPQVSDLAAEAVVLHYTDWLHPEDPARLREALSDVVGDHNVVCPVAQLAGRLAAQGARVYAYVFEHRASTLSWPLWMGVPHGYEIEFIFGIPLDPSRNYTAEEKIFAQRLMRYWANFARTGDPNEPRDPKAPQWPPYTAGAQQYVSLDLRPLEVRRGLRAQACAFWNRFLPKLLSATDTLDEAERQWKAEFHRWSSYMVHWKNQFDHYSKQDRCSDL
Chain of Acetylcholinesterase (Electrophorus electricus) (O42275 24-633 limits assumed): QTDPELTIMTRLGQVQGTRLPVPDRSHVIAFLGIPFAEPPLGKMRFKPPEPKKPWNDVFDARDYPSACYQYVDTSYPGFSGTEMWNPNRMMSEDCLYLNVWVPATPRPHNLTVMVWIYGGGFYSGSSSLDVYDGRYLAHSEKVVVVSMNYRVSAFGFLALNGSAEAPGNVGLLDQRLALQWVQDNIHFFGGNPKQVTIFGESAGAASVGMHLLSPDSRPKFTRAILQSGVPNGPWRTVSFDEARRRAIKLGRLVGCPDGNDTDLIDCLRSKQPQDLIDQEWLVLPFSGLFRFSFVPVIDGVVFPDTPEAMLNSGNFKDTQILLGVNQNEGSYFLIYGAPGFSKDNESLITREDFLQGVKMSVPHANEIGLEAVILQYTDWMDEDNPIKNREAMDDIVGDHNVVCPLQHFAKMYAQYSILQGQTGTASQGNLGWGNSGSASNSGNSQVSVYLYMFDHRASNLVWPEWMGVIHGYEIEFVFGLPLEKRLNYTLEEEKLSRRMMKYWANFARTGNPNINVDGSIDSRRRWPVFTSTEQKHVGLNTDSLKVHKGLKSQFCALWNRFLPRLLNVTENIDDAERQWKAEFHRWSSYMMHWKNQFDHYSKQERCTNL

Structure (SMILES) | IC50 (Acetylcholinesterase [1]) | IC50 (Acetylcholinesterase [2]) | IC50 (Cholinesterase) | IC50 [3] | Activity (Supercoiled DNA) | Activity [4] | Activity [5] | viability at 24 h, up to 60 µM [6] | viability at 24 h, 90 µM [7] | Activity (SK-N-SH [8]) | Activity (SK-N-SH [9]) | Activity (Acetylcholinesterase [10]) | Activity (Acetylcholinesterase [11]) | deltaG (Acetylcholinesterase [12]) | Activity (Acetylcholinesterase [13]) | Ratio IC50 [14] | inhibition [15] | Ki (Acetylcholinesterase [16]) | Ki (Acetylcholinesterase [17]) | Activity (DNA)
CCOP(=O)(OCC)C(Nc1ccccc1C(F)(F)F)c1ccc(OCc2nc3ccccc3c(=O)n2-c2ccc(F)cc2)c(OC)c1 (centres undefined) | 0.341 µM | 4.93 µM | > 100 µM | 36.5 µM | – | – | – | – | – | – | – | – | – | – | – | – | – | – | – | –
CCOP(=O)(OCC)C(Nc1ccccc1OC)c1ccc(OCc2nc3ccccc3c(=O)n2-c2ccc(F)cc2)c(OC)c1 (centres undefined) | 0.296 µM | 2.65 µM | 10.6 µM | 28.8 µM | inactive | Active | Active | > 90% | 85% | 65% | Active | Dose-Dependent Effect | Active | -28.8 kJ/mol | Dose-Dependent Effect | – | – | – | – | –
CCOP(=O)(OCC)C(Nc1ccccc1CC)c1ccc(OCc2nc3ccccc3c(=O)n2-c2ccc(F)cc2)c(OC)c1 (centres undefined) | 0.532 µM | – | 29.6 µM | > 50 µM | – | – | – | – | – | – | – | – | – | – | – | 55.7 | – | – | – | –
CCOP(=O)(OCC)C(Nc1ccc(C(=O)O)cc1)c1ccc(OCc2nc3ccccc3c(=O)n2-c2ccc(F)cc2)c(OC)c1 (centres undefined) | 0.289 µM | 1.16 µM | 20.2 µM | 30.1 µM | inactive | Active | Active | > 90% | – | 65% | Active | Dose-Dependent Effect | Active | -31.5 kJ/mol | Dose-Dependent Effect | 70.1 | Active | 0.297 µM | 0.292 µM | –
CCOP(=O)(OCC)C(Nc1ccc([N+](=O)[O-])cc1)c1ccc(OCc2nc3ccccc3c(=O)n2-c2ccc(F)cc2)c(OC)c1 (centres undefined) | 0.315 µM | 1.78 µM | > 100 µM | 28 µM | – | – | – | – | – | – | – | – | – | – | – | – | – | – | – | –
CCOP(=O)(OCC)C(Nc1ccc(Cl)cc1)c1ccc(OCc2nc3ccccc3c(=O)n2-c2ccc(F)cc2)c(OC)c1 (centres undefined) | 0.639 µM | – | > 100 µM | 33.2 µM | – | – | – | – | – | – | – | – | – | – | – | – | – | – | – | –
CCOP(=O)(OCC)C(Nc1cccc(Cl)c1Cl)c1ccc(OCc2nc3ccccc3c(=O)n2-c2ccc(F)cc2)c(OC)c1 (centres undefined) | 0.306 µM | 2.55 µM | 23.3 µM | 29.3 µM | Active | Active | Active | > 90% | 85% | 65% | Active | Dose-Dependent Effect | Active | -29 kJ/mol | Dose-Dependent Effect | 76 | – | – | – | Active
CCOP(=O)(OCC)C(Nc1ccccc1C)c1ccc(OCc2nc3ccccc3c(=O)n2-c2ccc(F)cc2)c(OC)c1 (centres undefined) | 0.393 µM | 5.35 µM | 33.8 µM | > 50 µM | – | – | – | – | – | – | – | – | – | – | – | 86 | – | – | – | –
CCOP(=O)(OCC)C(Nc1ccc(Br)cc1)c1ccc(OCc2nc3ccccc3c(=O)n2-c2ccc(F)cc2)c(OC)c1 (centres undefined) | 0.487 µM | – | > 100 µM | > 50 µM | – | – | – | – | – | – | – | – | – | – | – | – | – | – | – | –
CCOP(=O)(OCC)C(Nc1ccccc1C#N)c1ccc(OCc2nc3ccccc3c(=O)n2-c2ccc(F)cc2)c(OC)c1 (centres undefined) | 0.322 µM | 2.94 µM | 11 µM | 39.4 µM | – | – | – | – | – | – | – | – | – | – | – | 34.2 | – | – | – | –
CCOP(=O)(OCC)C(Nc1ccc(C)cc1)c1ccc(OCc2nc3ccccc3c(=O)n2-c2ccc(F)cc2)c(OC)c1 (centres undefined) | 0.669 µM | – | > 100 µM | 39.3 µM | – | – | – | – | – | – | – | – | – | – | – | – | – | – | – | –
CCOP(=O)(OCC)C(Nc1ccccc1)c1ccc(OCc2nc3ccccc3c(=O)n2-c2ccc(F)cc2)c(OC)c1 (centres undefined) | 0.921 µM | – | > 100 µM | > 50 µM | – | – | – | – | – | – | – | – | – | – | – | – | – | – | – | –
